This is an account of results in ChEMBL document CHEMBL1135867, “Synthesis, photobiological activity and photoreactivity of methyl-thieno-8-azacoumarins, novel bioisosters of psoralen” (Bioorg Med Chem Lett, 2002).

Active and inactive are the calls of the source. The rule behind the calls is not given here.

The species named for test [1] is Cavia porcellus. As to the kind of experiment: Skin phototoxicity was evaluated after UVA irradiation at a dose of 0.2 (umol cm e-2) and formation of erythema was reported; Absent. It counts as functional, organism-based.
A further test has as its system HeLa. As to the kind of experiment: Compound was evaluated for its antiproliferative activity after UVA irradiation on human tumor HeLa cell line. It counts as functional, cell-based. Particulars: light or radiation study.
The next test relates to HL-60. In words: Compound was evaluated for its antiproliferative activity after UVA irradiation on human tumor HL-60 cell line. The test is classed as functional, cell-based. Particulars: HL-60, light or radiation study.
The subject of test [2] is Cavia porcellus. As to the kind of experiment: Skin phototoxicity was evaluated after UVA irradiation at a dose of 0.05 (umol cm e-2) and formation of erythema was reported; Strong (with edema). The test is classed as functional, organism-based.

In the case of `Cc1sc2nc3oc(=O)cc(C)c3cc2c1C`, in the test filed under Cavia porcellus [1], the Formation of erythema result is “inactive”. The IC50 with HeLa was over 20 µM; in the test with HL-60, 7.3 µM.

As to `Cc1cc(=O)oc2nc3scc(C)c3cc12`, in the test filed under Cavia porcellus [1], the Formation of erythema result is “inactive”. Also, the IC50 was determined as 8.9 µM with HeLa and 2.2 µM with HL-60.

With `COc1c2occc2cc2ccc(=O)oc12`, the Formation of erythema result in the test on Cavia porcellus [2] is “Active”.

Broadly, the IC50 is the midpoint of a concentration-inhibition curve. Low values mean higher potency, high ones lower potency.
